{"source": "patent US6914065B2", "about": "“Imidazo[1,2-C]pyrimidine derivatives as ligands for gaba receptors” (Merck Sharp & Dohme Ltd., priority 2000, dated 2005)"}
{"smiles": "Cc1cc2ncc(-c3cccc(-c4ccccc4C#N)c3)n2cn1", "note": "[Example 1, 3′-(7-Methylimidazo[1,2-c]pyrimidin-3-yl)biphenyl-2-carbonitrile]", "values": [{"measurement": "melting point", "value": 119, "unit": "°C"}]}
